Assay results as given in PMC4389225, “Triaminopyrimidine is a fast-killing and long-acting antimalarial clinical candidate” (Nature Communications, 2015).
“And” between values parts separate entries of the source, which are not always exact repeats. Equal entries are not always repeated. Where two headings read alike, the source gives them in different places.

Legend:
[1] = set-up: species or system human
Source text: (§1) Supplementary Note 5: Prediction of human clearance for compound 12 by IVIVE.
(§2) Human clearance (CL) was predicted by in vitro-in vivo extrapolation (IVIVE) from the in vitro Clint in human hepatocytes6. In vitro Clint was scaled to in vivo Clint as follows:
(§3) Clint in vivo = Clint in vitro * scaling factors * fublood/fuinc
(§4) The liver weights used for scaling were 40, 32 and 24 g/kg body weight in rat, dog and human respectively. Hepatocellularity used for scaling was 163, 169 and 120 (X 106) cells/g liver in rat, dog and human respectively. Free fraction in blood was calculated as fuplasma /Blood:Plasma (BP) ratio. BP ratio and free fraction in the hepatocyte incubation mix, fuinc, were measured in vitro. Slope and intercept from the linear regression analysis of IVIVC for a large number of AstraZeneca compounds was applied for final correction in the scaled in vivo Clint. A well stirred model was used for CL prediction.
Where Qh is the liver blood flow. The values of Qh in rat, dog and human are 72, 55 and 20 mL.min-1kg-1 in rat, dog and human, respectively. In vitro parameters, observed in vivo CL and predicted CL are shown in supplementary Table 10.
Prediction of human CL and Vss by rat and dog allometry. Human CL for 12 was also predicted by simple, two species (rat and dog) allometry based on CL and Vss estimates from rat and dog IVPK. The coefficient and exponent from allometry were used for human CL prediction by the Fu corrected intercept method (FCIM)7. CL was predicted as […]
(§5) (also on this page, place not known: in vivo in vivo CLintQ CLintQCL Predicted predicted predicted h h + ×=)
(§6) (1 picture or pasted object on this page, not shown here)
Where ‘a’ is the coefficient obtained from simple allometric scaling and Rfup is the ratio of free fractions in plasma, fup in rat to fup in human. Vss in human was predicted by simple, rat and dog allometry (supplementary Table 11).
Prediction of human PK profile. The predicted human CL and Vss estimates could be used for predicting human PK with a one compartment distribution. However, rat and dog IVPK profiles indicated a two compartment distribution. Parameters for the two compartment distribution in human were predicted by Wajima transformation8 of rat and dog IVPK […]
CLd, Vt and Vc estimates, assuming similar Ka (0.3/h) and F (0.7) as observed in rats (supplementary Fig. 12 ).
Predicted human PK parameters are shown in supplementary Table 12. Human CL estimates predicted by the FCIM method and IVIVE (3.8 ml/min/kg) were identical. The […]
Human efficacy was predicted after treatment of 70 kg adult with a single 260 mg dose, assuming 2% parasitemia at the onset of treatment and assuming one compartment distribution of 12 in humans (supplementary Fig. 13). Similar efficacy was predicted if 12 was distributed in two compartments.

Hepatocyte Clint, rat = type: in vitro ADME; conditions: for Predicted blood CL: Rat
Source text: as §1, §2, §3, §4
Where Qh is the liver blood flow. The values of Qh in rat, dog and human are 72, 55 and 20 mL.min-1kg-1 in rat, dog and human, respectively. In vitro parameters, observed in vivo CL and predicted CL are shown in supplementary Table 10. […]
as §5, §6

[2] = 260 mg / 70 kg, two compartment

Cc1nc(Nc2ncc(N3CCN(C)[C@H](C)C3)c(Nc3cc(C)n(C)n3)n2)cc(C2CC2)c1F [compound 12, (R)-N2-(4-cyclopropyl-5-fluoro-6-methylpyridin-2-yl)-N4-(1,5-dimethyl-1H-pyrazol-3-yl)-5-(3,4-dimethylpiperazin-1-yl)pyrimidine-2,4-diamine]
Predicted human CL [1, 2]: 4.33 mL/min/kg | Predicted human CLd [1, 2]: 20 mL/min/kg | Predicted human Vc [1, 2]: 4.0 L/kg | Predicted human Vt [1, 2]: 7.3 L/kg | Human CL predicted by the FCIM method and IVIVE ([1]; Human): 3.8 mL/min/kg | Predicted blood CL ([1]; Human): 24 % LBF | Predicted blood CL ([1]; Human, IVIVE from hepatocyte Clint): 3.8 mL/min/kg | Predicted human F ([1]; assumed similar to rats): 0.7 | Predicted human Ka ([1]; assumed similar to rats): 0.3 h⁻¹ | B—predicted mean human plasma Cmax free ([1]; human, 260 mg dose): 8.7 nM | predicted half-life in human ([1]; human, predicted): ~ 36 h and 36 h | Allometry parameter B (exponent), CL ([1]; rat and dog allometry): 1.08 | Allometry parameter a (coefficient), CL ([1]; rat and dog allometry): 0.6 | Predicted blood CL (Hepatocyte Clint, rat): 26 % LBF | Predicted blood CL (Hepatocyte Clint, rat; IVIVC from hepatocyte Clint): 18.8 mL/min/kg | hepatocyte CLint (Hepatocyte Clint, rat; rat, hepatocytes): 11.3 µL/min/1e6 cells
